In patent publication US20240325489A1, “CONNEXIN 43 FOR USE IN THE TREATMENT OF RETINOBLASTOMA PROTEIN POSITIVE TUMOURS” (FUNDACIÓN PROFESOR NOVOA SANTOS, priority 2021, published 2024):
Entries after “also recorded” stand apart in the source; their conditions may differ.

Tests used:
[1] = tested on: MCF7 cells overexpressing Cx43 (MCF7 Cx43); assay: IC50 calculation, Palbociclib dose-response, crystal violet; assay type: cell-based; details: Homo sapiens, 168 h; MCF7 containing Cx43, 7 days treatment, absorbance 570 nm
Description: (§1) Rb positive cell lines MCF7 (breast cancer), T47D (breast cancer) and A375 (melanoma) were cultured in Dulbecco's modified Eagle's medium (DMEM) (Lonza) supplemented with 10% fetal bovine serum (FBS) (Gibco, Thermo Fisher Scientific) and 100 U/mL penicillin and 100 μg/ml streptomycin (Gibco, Thermo Fisher Scientific). HT29 (colon adenocarcinoma) was cultured in McCoy'S 5A medium (Sigma-Aldrich) supplemented with 10% FBS and 100 U/mL penicillin and 100 μg/ml streptomycin. Cells were maintained at 37° C. in 5% CO2 humidified incubator (SANYO CO2). The medium was changed every 2 days.
(§2) Retroviral infection was used to overexpress Cx43 in MCF7 cells. Retroviral particles were generated by transfecting pLPCX-Cx43 and pLPCX-EV plasmids, kindly donated by Dr. Trond Aasen, and retroviral helper plasmids (vsvg and gag-pol) with Polyethylenimine (PEI) in HEK293T packaging cells for 48 h. The supernatant was then filtered with 0.45 μm filters and applied to MCF7 cells in the presence of 4 μg/ml polybrene (hexadimethrine bromide; Sigma-Aldrich) following 3 rounds of infection. […]
(§3) IC50s were calculated using cell cultures from MCF7 (EV and Cx43) and T47D cells treated with different concentrations of the CDK4/6 inhibitor Palbociclib for 7 days. Cells were stained with crystal violet and cell number was assessed measuring the absorbance at 570 nm.

[2] = tested on: MCF7 cells expressing the vector control (EV); assay: as above; assay type: cell-based; details: Homo sapiens, 168 h; MCF7 EV (no Cx43), 7 days treatment, absorbance 570 nm
Description: as §1, §2, §3

[3] = tested on: MCF7 cells; assay: Colony formation assay; assay type: cell-based, human; details: for reduction in cell proliferation: FIG. 3c, MCF7, 500 nM Palbociclib 7 days, compared with untreated control
Description: Retroviral infection was used to overexpress Cx43 in MCF7 cells. Retroviral particles were generated by transfecting pLPCX-Cx43 and pLPCX-EV plasmids, kindly donated by Dr. Trond Aasen, and retroviral helper plasmids (vsvg and gag-pol) with Polyethylenimine (PEI) in HEK293T packaging cells for 48 h. The supernatant was then filtered with 0.45 μm filters and applied to MCF7 cells in the presence of 4 μg/ml polybrene (hexadimethrine bromide; Sigma-Aldrich) following 3 rounds of infection. Cells were subsequently selected with the appropriate antibiotic resistance using 0.5 μg/ml puromycin (Sigma).
(§4) Cells were treated with 250 nM of Palbociclib (PD0332991) (APExBIO), 500 nM Abemaciclib (LY2835219) (Selleckchem) or 500 nM Ribociclib (LEE011) (Selleckchem) for 7 days. All treatments were done using DMEM supplemented with 10% FBS and 100 U/mL penicillin and 100 μg/ml streptomycin. Media was replaced every 2 days.
(§5) Colony formation assays were performed plating 5×10^3 to 5×10^4 cells per well onto 6-12 well plates and grown for 7-15 days. Medium was replaced every 48 h. The cells were washed with warm Saline Solution and fixed with cold 4% PFA for 15 min. Cells were washed with PBS and stained with 0.05% of crystal violet (Sigma-Aldrich) for 15 min. After staining, the cells were washed with distilled water and dried at room temperature. The colonies were quantified by diluting crystal violet in 30% acetic acid and 100 μL of the solution was collected to measure the absorbance at 570 nm using a NanoQuant microplate reader Infinite M200 (TECAN).
HEK 293T cells were seeded onto 162 cm^2 culture flasks (Corning, Sigma-Aldrich) until confluence (80%-90%). Cells were washed three times with PBS and cultured for 48 h in DMEM 0% FBS. Supernatants were collected and centrifuged at 1800 rpm for 5 min. Pellet was discarded and supernatants were filtered through a 0.22 μm filter and then the filtered supernatants were centrifuged at 100,000 g for 90 min at 4° C. (Optimal-90K ultracentrifuge) using 70 Ti rotor (Beckman Coulter). Supernatants were discarded and pellet-containing sEVs were washed with PBS and centrifuged at 100,000 g for 90 min at 4° C. The pellet with sEVs was resuspended in culture medium. Target cells (MCF7 or T47D cells) were treated with sEVs in the presence/absence of CDK 4/6 inhibitors for 48 h. 3 rounds of treatment were performed. For NTA Nanosight NS300 analysis and sEV protein and RNA content determination, a second ultracentrifugation with PBS was performed, and sEV pellet was resuspended in PBS. […]

[4] = tested on: T47D cells; assay: IC50 calculation, Palbociclib dose-response, crystal violet; assay type: cell-based; details: Homo sapiens, 168 h; T47D (lower Cx43 than MCF7-Cx43), 7 days treatment
Description: as §1, with “days. IC50s were calculated using cell cultures from MCF7 (EV and Cx43) and T47D cells treated with different concentrations of the CDK4/6 inhibitor Palbociclib for 7 days. Cells were stained with crystal violet and cell number was assessed measuring the absorbance at 570 nm.” for “days.”

[5] = tested on: HT29 colon adenocarcinoma cells; assay: Proliferation of colon cells (colony formation); assay type: cell-based; details: HT29 Cx43 vs EV, 7 days, 250 nM Palbociclib, 500 nM Abemaciclib and Ribociclib
Description: (§6) Cell lines (A375 and HT29) were transfected by electroporation to overexpress Cx43. The Amaxa® Cell Line Nucleofector® Kit V (Lonza) was used to transfect cells in a Cell Line Nucleofector™ Device (Lonza). A million cells were harvested and resuspended in 100 μL of Nucleofector® solution. 3 μg of the corresponding plasmid was added, and the mixture was transferred into an electroporation cuvette using the U-28 program. Cell lines were transfected with pIRESpuro2 plasmid construct (Clontech) containing the human Cx43 sequence, kindly donated by Arantxa Tabernero (Institute of Neuroscience of Castilla y León, University of Salamanca, Spain). The transfected cells were seeded in culture medium and 24 hours (h) post-transfection the medium was replaced with complete medium containing puromycin dihydrochloride (Tocris, Bioscience) at different concentrations depending of the cell line (0.5 μg/mL to 2 μg/mL). […]
(§7) Colony formation assays were performed plating 5×10^3 to 5×10^4 cells per well onto 6-12 well plates and grown for 7-15 days. […] The colonies were quantified by diluting crystal violet in 30% acetic acid and 100 μL of the solution was collected to measure the absorbance at 570 nm using a NanoQuant microplate reader Infinite M200 (TECAN).

[6] = tested on: A375 melanoma cells; assay: Colony formation assay; assay type: cell-based, human; details: A375 Cx43 vs EV, 7 days, 250 nM Palbociclib, 500 nM Abemaciclib and Ribociclib
Description: as §6, §7

[7] = tested on: T47D cells; assay: Colony formation assay; assay type: cell-based; details: 7 days treatment
Description: as §4, §5
HEK 293T cells were seeded onto 162 cm^2 culture flasks (Corning, Sigma-Aldrich) until confluence (80%-90%). Cells were washed three times with PBS and cultured for 48 h in DMEM 0% FBS. Supernatants were collected and centrifuged at 1800 rpm for 5 min. Pellet was discarded and supernatants were filtered through a 0.22 μm filter and then the filtered supernatants were centrifuged at 100,000 g for 90 min at 4° C. […]

[8] = tested on: MCF7 cells; assay: Hemichannel activity (ATP release) and gap-junction communication (parachute assay); assay type: cell-based, human; details: MCF7 upon Cx43 restoration vs EV
[9] = tested on: MCF7 cells; assay: Senescence and apoptosis markers (western-blot, qPCR, SA-β-galactosidase); assay type: cell-based, human
Description: Cells were grown onto coverslips and fixed with 4% paraformaldehyde (PFA) for 10 min at room temperature (RT). Cells were then washed twice with PBS and permeabilized by incubation with 0.2% Triton X-100 (Sigma) in PBS for 10 min at RT. After a PBS wash, cells were blocked 30 min at RT using 1% BSA in PBS supplemented with 0.1% Tween-20 (PBST). Primary antibodies were diluted in 1% BSA-PBST and incubated overnight (anti-Cx43 (#C6219), Sigma-Aldrich 1:1000; anti-Tubulin (T9026). Cells were then washed with PBS and incubated with secondary antibodies for 1 h at RT. HRP-conjugated secondary antibodies used were anti-mouse (NA-931, Sigma-Aldrich) and anti-rabbit ([…], Sigma-Aldrich). Cells were washed with PBS and fixed with 4% paraformaldehyde for 15 mins at room temperature. […] (Senescence Cells Histochemical Staining Kit Ref […]; Sigma). Cells were imaged using a light microscope at 20× magnification and single representative images of each well were taken. Total RNA was isolated from cells using TRI Reagent® RT (Vitro Bio) according to manufacturer's protocol. 200 μL of chloroform were added to the tubes and samples were incubated for 10 min at 4° C. and then centrifugated at 14,000 g for 15 min at 4° C. After centrifugation, the aqueous phase (upper) are obtained and transferred to a new tube with 500 μL of isopropanol and samples were vortexed 15 sec. The tubes centrifugated at 14,000 g for 15 min at 4° C. Supernatant was discarded, and the RNA pellets were washed with 1 mL of 70% ethanol and centrifugated for 5 min at 7,000 g at 4° C. The supernatants were discarded, and RNA pellets were air dry. RNA was treated with DNase I, RNase free (Thermo Fisher Scientific) following manufacturer's protocol. RNA samples were quantified in a Nanodrop® ND-1000 (Thermo Fisher Scientific). 1 μg of RNA was used to synthesize complementary DNA (cDNA) with the SuperscriptTM IV VILOTM Master Mix (Invitrogen, Thermo Fisher Scientific) following manufacturer's protocol. cDNA samples are quantified in a Nanodrop® ND-1000 (Thermo Fisher Scientific) and resuspended in DNase/RNase/Protease-free water (Sigma-Aldrich). 5 μL of cDNA (1 μg) were mixed with 0.5 μL of primer mix (10 μM each primer), 10 μL of Applied BiosystemsTM PowerUPTM SYBRTM Green Master Mix (Applied Biosystems, Thermo Fisher Scientific) and complete with dH2O until 20 μL per well on LightCycler® 480 System (Roche). The program consisted on a first denaturing cycle of 10 min at 95° C. followed by 30-55 amplification cycles for 10 seconds (sec) at 95° C., 30 sec at 60° C. for annealing and 12 sec at 72° C. for extension. The primers used are listed below: […]

For `CC(=O)c1c(C)c2cnc(Nc3ccc(N4CCNCC4)cn3)nc2n(C2CCCC2)c1=O` [Palbociclib], the IC50 [1] was 66.8 nM, the IC50 [2] was 282 nM and the “reduction in cell proliferation” value [3] was “around 40%”. For the same compound, the IC50 [4] was 121 nM.

In the case of `CN(C)C(=O)c1cc2cnc(Nc3ccc(N4CCNCC4)cn3)nc2n1C1CCCC1` [Ribociclib], the “effect of Cx43 overexpression on inhibitor efficacy (reduction in proliferation)” value [5] is reported as “increases the efficacy”, the “effect of Cx43 overexpression on the CDK4/6 inhibitor's effect on cell proliferation” value ([3]; MCF7 Cx43 vs EV, 7 days, colony formation) is reported as “enhances the effect” and the “effect of Cx43 overexpression on inhibitor efficacy (reduction in proliferation)” value [6] is reported as “increases the efficacy”. For the same compound, the colony formation capacity [7] was “effectively respond”.

“Cx43: connexin 43 overexpressed in tumour cells by retroviral vector or plasmid” was tested, and the “reduction in cell proliferation” value [3] was 50%, the “cell proliferation / colony formation capacity” value ([3]; MCF7, 7 days) was “induces proliferation arrest; also recorded: significantly reduced cell proliferation and colony formation capacity” and the “hemichannels activity and gap-junction intercellular communication” value [8] was “increase in hemichannels activity and gap-junction intercellular communication”. The β-galactosidase activity ([9]; MCF7, SA-β-galactosidase staining) was “increases β-galactosidase activity”, the “apoptotic markers Bax and Bcl2 protein” value ([9]; MCF7, western-blot) was “increases the pro-apoptotic protein Bax and reduces Bcl2” and the “levels of senescent markers p21 and p53” value ([9]; MCF7, western-blot, vs vector control (EV)) was “increases the levels of the senescent markers p21 and p53”. The “SASP factors IL6, IL8, MMP9 (qPCR)” value ([9]; MCF7 overexpressing Cx43 vs EV) was “increases the secretion of different cytokines such as IL6, IL8 and MMP9”.
